Calls of active or inactive are those of the source.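 Rule for the calls: active = IC50 at or below 10 µM; inactive = IC50 above 10 µM.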
The compounds below were run against Rho-associated protein kinase 2 (Homo sapiens) (UniProt O75116) (assay: blockers of Rho kinase 2 activity – biochemical, Kinase-Glo luminescence, S6 peptide, 384-well, dose response (AID 791)). Details: recombinant ROCK2, S6 peptide.
Chain of Rho-associated protein kinase 2 (Homo sapiens) (O75116 whole entry, looked up): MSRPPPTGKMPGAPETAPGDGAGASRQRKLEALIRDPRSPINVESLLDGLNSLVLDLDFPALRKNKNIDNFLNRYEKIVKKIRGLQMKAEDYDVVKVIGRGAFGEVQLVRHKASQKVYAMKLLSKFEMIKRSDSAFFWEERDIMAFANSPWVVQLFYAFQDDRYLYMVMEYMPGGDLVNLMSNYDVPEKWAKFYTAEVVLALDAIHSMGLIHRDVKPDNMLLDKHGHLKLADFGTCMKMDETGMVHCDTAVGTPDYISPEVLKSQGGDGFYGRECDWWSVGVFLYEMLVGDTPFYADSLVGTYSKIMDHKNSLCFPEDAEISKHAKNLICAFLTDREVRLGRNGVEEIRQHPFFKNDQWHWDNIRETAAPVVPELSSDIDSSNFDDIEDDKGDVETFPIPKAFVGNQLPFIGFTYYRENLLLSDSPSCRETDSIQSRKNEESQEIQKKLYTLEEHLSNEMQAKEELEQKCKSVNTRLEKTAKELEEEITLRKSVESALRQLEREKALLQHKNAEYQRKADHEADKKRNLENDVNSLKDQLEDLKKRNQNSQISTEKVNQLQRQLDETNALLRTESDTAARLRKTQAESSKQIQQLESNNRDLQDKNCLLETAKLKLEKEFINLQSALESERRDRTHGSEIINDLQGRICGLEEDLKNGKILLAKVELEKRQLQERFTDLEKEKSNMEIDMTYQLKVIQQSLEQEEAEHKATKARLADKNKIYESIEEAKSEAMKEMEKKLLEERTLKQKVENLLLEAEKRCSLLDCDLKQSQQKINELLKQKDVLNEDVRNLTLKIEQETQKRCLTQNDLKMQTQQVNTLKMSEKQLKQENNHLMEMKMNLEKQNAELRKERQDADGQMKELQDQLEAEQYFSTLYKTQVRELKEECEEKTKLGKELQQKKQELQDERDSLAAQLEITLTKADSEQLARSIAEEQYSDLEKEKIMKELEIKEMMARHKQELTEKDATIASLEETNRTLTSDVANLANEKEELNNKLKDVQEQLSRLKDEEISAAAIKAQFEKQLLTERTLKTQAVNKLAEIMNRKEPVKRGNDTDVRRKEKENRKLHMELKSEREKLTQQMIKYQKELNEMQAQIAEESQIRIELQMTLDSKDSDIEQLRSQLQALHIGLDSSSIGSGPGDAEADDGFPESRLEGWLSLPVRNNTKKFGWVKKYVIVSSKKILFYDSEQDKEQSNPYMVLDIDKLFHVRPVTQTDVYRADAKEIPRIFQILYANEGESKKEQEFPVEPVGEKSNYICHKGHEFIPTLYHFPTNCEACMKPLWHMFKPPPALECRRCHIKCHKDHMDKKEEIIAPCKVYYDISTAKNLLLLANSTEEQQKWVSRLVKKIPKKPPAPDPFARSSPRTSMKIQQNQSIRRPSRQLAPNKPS

SMILES | IC50
CC(C)[C@@H](O)C(=O)N1CCN(c2ccc3[nH]ncc3c2)CC1 | 3910 nM
C[C@H](N)C(=O)N1CCC(Nc2ccc3[nH]ncc3c2)CC1 | 5740 nM
N[C@@H](C(=O)N1CCN(c2ccc3[nH]ncc3c2)CC1)c1ccccc1 | 1400 nM
O=C([C@@H]1Cc2ccccc2CN1)N1CCN(c2ccc3[nH]ncc3c2)CC1 | 5320 nM
O=C([C@@H](O)c1ccccc1Cl)N1CCC(Nc2ccc3[nH]ncc3c2)CC1 | 1700 nM
NC(C(=O)N1CCN(c2ccc3[nH]ncc3c2)CC1)c1cccc(Cl)c1 (stereo not drawn) | 756 nM
O=C([C@H](O)c1ccccc1Cl)N1CCN(c2ccc3[nH]ncc3c2)CC1 | 1200 nM
O=C(C(O)c1ccc(Br)cc1)N1CCC(Nc2ccc3[nH]ncc3c2)CC1 (stereo not drawn) | 8.87 nM
C[C@@H](N)C(=O)N1CCN(c2ccc3[nH]ncc3c2)CC1 | > 10600 nM (inactive)
NC(C(=O)N1CCC(Nc2ccc3[nH]ncc3c2)CC1)c1cccc(Cl)c1 (stereo not drawn) | 148 nM
O=C([C@H](O)c1cccc(Cl)c1)N1CCC(Nc2ccc3[nH]ncc3c2)CC1 | 350 nM
O=C(C(O)c1ccc(Cl)cc1)N1CCN(c2ccc3[nH]ncc3c2)CC1 (stereo not drawn) | 186 nM
O=C([C@H](O)c1cccc(Cl)c1)N1CCN(c2ccc3[nH]ncc3c2)CC1 | 1050 nM
NC(C(=O)N1CCN(c2ccc3[nH]ncc3c2)CC1)c1ccc(Br)cc1 (stereo not drawn) | 8.97 nM
O=C([C@H](O)c1ccccc1)N1CCC(Nc2ccc3[nH]ncc3c2)CC1 | 774 nM
NC(C(=O)N1CCC(Nc2ccc3[nH]ncc3c2)CC1)c1ccc(Br)cc1 (stereo not drawn) | 1.26 nM
N[C@H](C(=O)N1CCC(Nc2ccc3[nH]ncc3c2)CC1)c1ccccc1 | 835 nM
O=C(C(O)c1ccc(Br)cc1)N1CCN(c2ccc3[nH]ncc3c2)CC1 (stereo not drawn) | 7.86 nM
N[C@@H](Cc1ccccc1)C(=O)N1CCC(Nc2ccc3[nH]ncc3c2)CC1 | 468 nM
O=C([C@H](O)c1ccccc1)N1CCN(c2ccc3[nH]ncc3c2)CC1 | 855 nM
C[C@H](O)C(=O)N1CCC(Nc2ccc3[nH]ncc3c2)CC1 | > 10000 nM (inactive)
N[C@H](Cc1ccccc1)C(=O)N1CCN(c2ccc3[nH]ncc3c2)CC1 | 379 nM
NC(C(=O)N1CCN(c2ccc3[nH]ncc3c2)CC1)c1ccc(Cl)cc1 (stereo not drawn) | 188 nM
